The text below walks through data of patent US6331555A, “Treatment of platelet derived growth factor related disorders such as cancers” (priority 1999, dated 2001).

One data set relates to T98G cells. The data set can be described thus: PDGF-stimulated DNA synthesis, T98G cells (3H-thymidine). The format is cell-based, human. The method, then: T98G cells in log phase growth were transferred to 96-well dishes at 20,000 cells in 200 μL of serum-containing growth medium. After an overnight attachment period, the monolayers were washed twice with 200 μL MCDB 105 medium and the cells were cultured in 200 μL serum-free MCDB 105 medium for 24 hr. […] The plates were incubated at 37° C. at ambient CO2 for approximately 18 hr. ^3 H-thymidine (Amersham, 5 Ci/mmol) was added to each well to yield a final concentration of 5 μCi/mL and the plates were returned to 37° C. incubator. After 4 hr the medium was removed, the plates were put onto ice, and washed twice with 200 μL ice-cold PBS per well. Radioactivity incorporated into DNA was separated from unincorporated ^3 H-thymidine by precipitation with 100 μL ice-cold TCA for 10 min on ice. […] Six mL of cocktail (Ready Safe, Beckman) was added and radioactivity quantified in a Beckman liquid scintillation counter model LS6000SC. […]
The effect on basal ^3 H-thymidine incorporation was determined in the absence of PDGF. […] Radioactivity incorporated into DNA was separated from unincorporated ^3 H-thymidine by precipitation with […] ice-cold TCA for 10 minutes. […] Six ml of cocktail (Ready Safe, Beckman) was added and radioactivity quantified in a Beckman liquid scintillation counter model LS6000 SC.

Data set [1] has as its system NIH3T3 cells overexpressing the human PDGF-b receptor. The data set can be described thus: PDGF-stimulated cell cycle progression, flow cytometry. The format is cell-based, mouse. How it is done: NIH3T3 mouse fibroblasts overexpressing the human PDGF-β receptor were seeded in DMEM supplemented with 10% CS and 2 mM GLN. Cells were grown to about 80% confluence and then treated overnight in serum-free medium (DMEM, 2 mM GLN, 2 mM NEAA, 2 mM NaPyr, and 2 mM HEPES). […] Cells were then collected, strained and analyzed by flow cytometry for DNA content.
The percentage of cells in the S phase of the cell cycle was determined by flow cytometry.
The cells were analyzed for DNA content by flow cytometry.
Background: Flow cytometry measures light scatter and fluorescence of single cells or particles in a stream.

A further data set has as its system C6 glioma cells. The data set can be described thus: C6 glioma SC xenograft in mice. Type of data set: in vivo. Summed up: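 C6 (3×10^6) or SKOV-3 (1×10^7) cells in PBS were implanted into the hind flank of female Balb/c nu/nu mice on Day 0; U87MG and U118MG went into athymic mice. Tumors were caliper-measured over 3–6 weeks, with volume as length×width×height. P values came from Student's t-test.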

The procedure of data set [2]:
(§1) Plasma was prepared and frozen in liquid nitrogen. Tissues and organs were resected and immediately frozen in liquid nitrogen. After the addition of an internal standard, plasma samples were acidified with HCl and extracted with acetonitrile. The acetonitrile fraction was evaporated to dryness in a vacuum centrifuge with heating and redissolved in methanol. Tissue and organ samples were homogenized according to the weight ratio of 1:5 (w:v) in 50 mM Tris-HCl, pH 7.4, at 20,000 rev/min, using a tissue homogenizer (Brinkmann Polytron Model PT3000). After the addition of an internal standard, the homogenate was acidified with HCl and then extracted with acetonitrile. The acetonitrile fraction was then extracted with an equal volume of diethyl ether. The ether fraction was evaporated to dryness in a vacuum centrifuge with heating and redissolved in methanol.
(§2) Samples for HPLC analysis were injected onto a Hewlett Packard Hypersil 5-μm C18 cartridge column (100×4.6 mm). The mobile phase was methanol:35 mM KH2 PO4 (pH 4.5) 55:45 containing 4 mM triethylamine. The flow rate was 1.2 mL/min. The compounds were monitored by UV absorption at 254 nm using a Hewlett-Packard diode-array detector (HP Model 1090). Plasma and tissue concentrations were determined from standard curves using peak area for quantitation. […] The internal standard used was 5-methyl-pyrazole-4-carboxylic acid-(4-trifluoromethyl)-anilide.
(§3) Table XXII. […] Plasma and brain samples were prepared and analyzed by HPLC as described in Appendix 6. All results were calculated by the method of internal standardization. NT= not tested, ND= not detected.

The format of data set [3] is in vivo, mouse. Conditions: IP A10 40 mg/kg single dose. The method, then: as §1
Samples for HPLC analysis were injected onto a Hewlett Packard Hypersil 5-μm C18 cartridge column (100×4.6 mm). […] The compounds were monitored by UV absorption at 254 nm using a Hewlett-Packard diode-array detector (HP Model 1090). Plasma and tissue concentrations were determined from standard curves using peak area for quantitation. […]
as §3

A short description of a further data set: in vivo. Also noted: species or system rat. Conditions: IP A10 80 mg/kg single dose. How it is done:
as §1, §2, §3

The next data set in a line: Solubility. Conditions: water. From the text: PBTE consists of a solution of 3% w/v benzyl alcohol, 8% w/v polysorbate 80, and 65% w/v polyethylene glycol (MW=300 daltons) in absolute ethanol. PBTE:D5W consists of PBTE diluted 1:1 in a solution of 5% dextrose in water. […] The solubility of the other compounds described herein can be obtained using standard techniques.

The next data set relates to tumor cell lines. The data set can be described thus: In vitro growth assays, tumor cell lines. The format is cell-based. The method, then: The assay measures protein content of acid-fixed cells using the counterion binding dye sulforhodamine B (SRB, Sigma). […] For other cell lines, the cells (2000 cells/well in 100 μL) were introduced into wells immediately after dispensing the drug solutions. After 4 days (37° C., 5% CO2) the monolayers were washed 3 times with PBS and fixed with 200 μL ice-cold 10% TCA (Fisher Scientific), and kept at 4° C. for 60 min. The TCA was removed and the fixed monolayers were washed 5 times with tap water and allowed to dry completely at room temperature on absorbent paper. The cellular protein was stained for 10 min with 100 μL 0.4% SRB dissolved in 1% acetic acid. After 5 washes with tap water, the dye was solubilized in 10 mM Tris base (100 μL per well) and absorbance read at 570 nm on a Dynatech plate reader model MR5000. Growth inhibition data are expressed as a percentage of absorbance detected in control wells which were treated with 0.4% DMSO alone. DMSO controls were not different from cells grown in regular growth medium. IC50 values were determined using a four parameter curve fit function.
For K562, DlB, L1210, 7TDl, T27A, and Colo320 DM cells, an MTT assay was used to assess cell growth. […] The absorbance was determined at 570 nm wavelength with a reference wavelength of 630 nm using an ELISA plate reader.

Where two headings read alike, the source gives them in different places.

As to `CC(O)=C(C#N)C(=O)Nc1ccc(C(F)(F)F)cc1` [Compound B11, 2-cyano-3-hydroxy-N-[4-(trifluoromethyl)phenyl]-2-butenamide], the “potency compared to A10, PDGF-stimulated DNA synthesis” value in the data set on T98G cells is on record as “equipotent in inhibiting PDGF-stimulated DNA synthesis”. The “potency compared to A10, PDGF-stimulated cell cycle progression” value in data set [1] is given as “equipotent”. Also, the “inhibition of tumor growth compared with A10” value in the data set on C6 glioma cells (B11 15 mg/kg/day (DMSO) vs A10 15 mg/kg/day (DMSO)) was “to the same extent”. Besides, the “potency compared to A10, growth of C6 tumors in vivo” value with C6 glioma cells (rat, in vivo) is “equipotent in the inhibition of the growth of C6 tumors in vivo”. In addition, the “brain level, athymic mice compared to Wistar rats” value in data set [2] (2 hr post-dose) stood at 11 times; in data set [2] (4 hr post-dose), 6.5 times. For the same compound, the “% Increase, multiple vs single dose” value in data set [2] (A10 20 mg/kg) was 64%; in data set [2] (A10 40 mg/kg), 69%. The “time detected in plasma” value in data set [2] (IP A10 40 mg/kg single dose) was “more than 48 hr”; in data set [2] (IP A10 […] mg/kg four weekly treatments, after last dose), 48 h; in data set [2] (IP A10 […] mg/kg single dose) it was “more than 48 hr”; in data set [3], “more than 48 hr”; in the data set “in vivo” it was “greater than 24 hr”. In “Solubility”, the solubility in water result is recorded as “not very soluble in water”. The “potency compared to A10, in vitro growth assays” value in the data set with tumor cell lines is reported as “equipotent to A10”.
